Test system: HT-1080 fibrosarcoma cells
Experiment: HT-1080 single-concentration cell viability screen (Cell Titer Glo)
Format: cell-based
Conditions: 10 μM compound, 48 hours, duplicate, fraction of control
From the text: To identify potential covalent inhibitors of GPX4, we screened a panel of 294 diverse small molecules from the Enamine covalent inhibitor library (Catalog No. CSL-10480-0-Z-10, Enamine, Monmouth, NJ). Each compound contains either a chloroacetamide or acrylamide moiety theoretically capable of forming a covalent bond with a selenocysteine. The small molecule compounds were selected for a diversity of backbone structures. The screening protocol used the cell viability assay Cell Titer Glo® (available from Promega, Madison, WI). Cell Titer Glo® is a luminescent cell viability that determines the number of viable cells in culture by quantifying ATP, which indicates the presence of metabolically active cells. Briefly, HT-1080 fibrosarcoma cells were plated 24 hours prior to treatment with 10 µM of each compound in the screening panel. Cell Titer Glo® was used to read out cell viability after 48 hours of compound exposure. Data was collected in duplicate.
To determine whether similar molecules could offer other starting points for a medicinal chemistry campaign, we screened 95 additional compounds that contain a similar base structure to that of 8216. Briefly, HT-1080 fibrosarcoma cells were treated with 10 µM of a compound for 48 hours and cell viability was measured by Cell Titer Glo®. Data was collected in duplicate. […]

SMILES | Average relative cell viability
O=C(CCl)N(CC1=CCCOC1)Cc1ccccc1 [Compound Z3952175509] | 0.03047
Cn1ccc(N(Cc2ccccc2)C(=O)CCl)n1 [Compound Z4170009630] | 0.08916
Cl.O=C(CCl)N(Cc1cn2ccccc2n1)C1CC1 [Compound Z4283095766] | 0.9342
O=C(CCl)N(Cc1ccccc1)Cc1cc2n(n1)CCCC2 [Compound Z4323310732] | 0.05332
O=C(CCl)N(Cc1noc2c1CCCC2)c1ccccc1F [Compound Z4323314193] | 0.00483
Cn1nnc(CN(C(=O)CCl)C2CCCCCCC2)n1 [Compound Z4323320274] | 0.002922
Cc1nn(C)c(C)c1CN(C(=O)CCl)C1CCCCC1C (stereo not drawn) [Compound Z4323324870] | 0.488
C=CCN1CCC(N(Cc2ccc(CC)o2)C(=O)CCl)CC1 [Compound Z4323341765] | 0.7008
COc1cc(CN(C(=O)CCl)C2CCCOC2)ccc1C (stereo not drawn) [Compound Z4323349920] | 0.002028
Cc1ccsc1CN(C(=O)CCl)C1CCN(C(C)C)C1=O (stereo not drawn) [Compound Z4323355648] | 0.5691
O=C(CCl)N(Cc1ccnn1C1CCC1)C1CC=CCC1 (stereo not drawn) [Compound Z4323362848] | 0.001626
COc1ccc(CN(C(=O)CCl)C2CCOC(C)C2)cc1C (stereo not drawn) [Compound Z4323373087] | 0.0167
O=C(CCl)N(Cc1cccc2ccoc12)C1CCCOCC1 (stereo not drawn) [Compound Z4323385212] | 0.003768
COC1CCC(N(Cc2cc(C)oc2C)C(=O)CCl)CC1 (stereo not drawn) [Compound Z4323386801] | 0.01527
O=C(CCl)N(Cc1ccc2c(c1)CCC2)CC1(CCO)CC1 [Compound Z4323486432] | 0.004428
O=C(CCl)N(Cc1ccc2c(c1)OCCO2)Cc1ncoc1C1CCC1 [Compound Z4425210448] | 0.00756
COc1ccc2nc(CN(Cc3ccc(F)cc3)C(=O)CCl)sc2c1 [Compound Z4425210755] | 0.002562
COc1nc2ccc(CN(Cc3ccc(F)cc3)C(=O)CCl)cc2s1 [Compound Z4425210756] | 0.00393
O=C(CCN(Cc1ccc2c(c1)CCOC2)C(=O)CCl)NC1CCCC1 [Compound Z4425210882] | 0.1465
O=C(CCl)N(CC1=CCCCC1)Cc1cc(-c2ccc(Cl)cc2)on1 [Compound Z4425210932] | 0.001926
CC(C)(C)n1nnc(CN(Cc2cccc(C3CC3)c2F)C(=O)CCl)n1 [Compound Z4425210960] | 0.01925
Cc1scc(CN(Cc2ccc3c(c2)OCCCO3)C(=O)CCl)c1C [Compound Z4425210974] | 0.001284
O=C(CCl)N(CCc1ccc(F)cc1)Cc1cnc(C2CCOCC2)o1 [Compound Z4425211012] | 0.0748
O=C(CCl)N(Cc1cnn(C2CCCCC2)c1)CC1(c2ccccc2)CC1 [Compound Z4425211258] | 0.001938

Reference: US20240315994A1, “SMALL MOLECULE MODULATORS OF FERROPTOSIS” (ARPEGGIO BIOSCIENCES, INC., priority 2021, published 2024)
